Reference: the supplement of paper PMC10307832

How the values were obtained:
Experiment in all cases: relative viability (nuclei count vs DMSO), 5 days (fraction); higher = more cells survive
[1] = compound: CCN1CCC(CC1)N2C=C(N=N2)CNC3=CC4=C(C(=CN=C4C(=C3)Cl)C#N)NC5=CC(=C(C=C5)F)Cl [KIN001-266] + COc1cc2c(Oc3ccc(NC(=O)C4(C(=O)Nc5ccc(F)cc5)CC4)cc3F)ccnc2cc1OCCCN1CCOCC1 [Foretinib] (partner 0.25 µM)
Outline: (§1)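 Relative viability equals treated-well nuclei counts divided by vehicle-well nuclei counts. Counts came from 4× images of lung cancer cell lines grown in 1536-well plates for 5 days after pin-tool dosing on the day after seeding. Dosing used one drug alone or a fixed anchor-drug dose plus five library-drug doses (not always all listed) in √10 steps, and values are medians of duplicate plates.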

[2] = compound: CCN1CCC(CC1)N2C=C(N=N2)CNC3=CC4=C(C(=CN=C4C(=C3)Cl)C#N)NC5=CC(=C(C=C5)F)Cl [KIN001-266] + CC(=O)c1c(C)c2cnc(Nc3ccc(N4CCNCC4)cn3)nc2n(C2CCCC2)c1=O [Palbociclib] (partner 0.5 µM)
Outline: as §1

[3] = compound: CCN1CCC(CC1)N2C=C(N=N2)CNC3=CC4=C(C(=CN=C4C(=C3)Cl)C#N)NC5=CC(=C(C=C5)F)Cl [KIN001-266] + CC(C)C[C@H](NC(=O)[C@H](Cc1ccccc1)NC(=O)c1cnccn1)B(O)O [Bortezomib] (partner 0.002 µM)
Outline: as §1

[4] = compound: CCN1CCC(CC1)N2C=C(N=N2)CNC3=CC4=C(C(=CN=C4C(=C3)Cl)C#N)NC5=CC(=C(C=C5)F)Cl [KIN001-266] + CS(=O)(=O)N1CCN(Cc2cc3nc(-c4cccc5[nH]ncc45)nc(N4CCOCC4)c3s2)CC1 [Pictilisib] (partner 1 µM)
Outline: as §1

Cell Line	relative viability ([1]; first compound 0.08 µM)	relative viability ([1]; first compound 0.253 µM)	relative viability ([1]; first compound 0.8 µM)	relative viability ([1]; first compound 2.53 µM)	relative viability ([1]; first compound 8 µM)	relative viability ([2]; first compound 0.08 µM)	relative viability ([2]; first compound 0.253 µM)	relative viability ([2]; first compound 0.8 µM)	relative viability ([2]; first compound 8 µM)	relative viability ([3]; first compound 0.08 µM)	relative viability ([3]; first compound 0.253 µM)	relative viability ([3]; first compound 0.8 µM)	relative viability ([3]; first compound 2.53 µM)	relative viability ([3]; first compound 8 µM)	relative viability ([4]; first compound 0.08 µM)	relative viability ([4]; first compound 0.253 µM)	relative viability ([4]; first compound 0.8 µM)	relative viability ([4]; first compound 2.53 µM)	relative viability ([4]; first compound 8 µM)	relative viability ([2]; first compound 2.53 µM)
LCLC-97TM1	0.983	0.914	0.903	0.888	0.909	0.201	0.233	0.216	0.235	0.679	0.595	0.489	0.731	0.337	0.198	0.264	0.192	0.16	0.215	–
LCLC-103H	0.837	0.716	0.987	0.772	0.726	0.453	0.492	0.466	0.433	1.18	1.15	1.08	1.08	0.986	0.618	0.693	0.71	0.676	0.605	0.456
LOU-NH91	0.943	0.924	0.623	0.804	0.724	0.526	0.544	0.509	0.53	0.499	0.497	0.428	0.513	0.443	0.542	0.533	0.443	0.469	0.505	0.525
LU99A	0.84	0.842	0.754	0.735	0.535	0.441	0.413	0.358	0.364	1.31	1.17	1.11	1.02	0.982	0.325	0.338	0.319	0.3	0.284	0.373
